{"source": "patent US4430331A", "about": "“Antiarrhytmic benzylimidazole” (Shionogi & Co., Ltd., priority 1981, dated 1984)", "key": {"[1]": {"tested_on": "SLC-DDY male mice", "test": "in vivo", "type": "in vivo", "settings": "LD50, up and down method, into tail venae (intravenous), SLC-DDY male mice 25 to 35 g", "text": "(§1) Lethal dose was obtained by administering a test compound in the form of a physiological brine solution into the tail venae of SLC-DDY male mice weighing from 25 to 35 g and calculating the value of LD50 by the up and down method [Brownlee, K. A. et al.: J. Am. Stat. As., 48, 262 (1953)]."}, "[2]": {"tested_on": "atrium dextrum specimens", "test": "Antiarrhythmic activity (cardiomuscular action to the maximal stimulus frequency)", "set-up": "species or system guinea-pigs", "settings": "isolated guinea-pig atrium dextrum, Krebs-Ringer-sodium carbonate solution, 30° C., after 10 minutes treatment with test compound", "method": "(a) Antiarrhythmic activity (cardiomuscular action to the maximal stimulus frequency) A certain number of atrium dextrum specimens were made by extracting the heart from male and female guinea-pigs weighing on average 350 to 600 g, and then suspended and fixed in a glass vessel filled with Krebs-Ringer-sodium carbonate solution (30° C.) in which a mixture of 95% oxygen and 5% carbon dioxide was continuously introduced. The automatism of the specimens was recorded on the oscillograph. Maximal stimulus frequency was confirmed by affording a stimulus of the atrium dextrum from the exciting electrode equipped to a retainer. After previously treating with a test compound for 10 minutes, the reducing percent (%) of the maximal stimulus frequency was calculated by observing the reduction of the maximal frequency [[…].: Brit. […]., 1, 90 (1946)]."}, "[3]": {"test": "in vivo", "type": "in vivo", "settings": "mouse, in vivo; LD50, up and down method, into tail venae (intravenous), SLC-DDY male mice 25 to 35 g; read-out: Acute toxicity (LD50)", "text": "as §1"}}, "data": [{"smiles": "C=C(c1ccccc1OCC(O)CNC(C)(C)C)n1cnc2ccccc21", "note": "(stereo not shown) [Example 22]", "values": [{"measurement": "Acute toxicity (LD50)", "setting": "[1]", "value": 26.5, "unit": "mg/kg"}, {"measurement": "Reducing percent (%) of Maximal stimulus frequency", "setting": "[2]", "value": 35.8, "unit": "%"}]}, {"smiles": "C=C(c1ccc(Cl)c(Cl)c1OCC(O)CNC(C)C)n1ccnc1", "note": "(stereo not shown) [Example 26]", "values": [{"measurement": "Acute toxicity (LD50)", "setting": "[1]", "value": 33.9, "unit": "mg/kg"}, {"measurement": "Reducing percent (%) of Maximal stimulus frequency", "setting": "[2]", "value": 35.8, "unit": "%"}]}, {"smiles": "C=C(c1ccccc1OCC(O)CNC(C)C)n1cncn1", "note": "(stereo not shown) [Example 31]", "values": [{"measurement": "Acute toxicity (LD50)", "setting": "[1]", "value": 36.4, "unit": "mg/kg"}, {"measurement": "Reducing percent (%) of Maximal stimulus frequency", "setting": "[2]", "value": 42.8, "unit": "%"}]}, {"smiles": "C=C(c1c(Cl)ccc(Cl)c1OCC(O)CNCC(C)C)n1ccnc1", "note": "(stereo not shown) [Example 13]", "values": [{"measurement": "Acute toxicity (LD50)", "setting": "[1]", "value": 15.5, "unit": "mg/kg"}, {"measurement": "Reducing percent (%) of Maximal stimulus frequency", "setting": "[2]", "value": 34.5, "unit": "%"}]}, {"smiles": "C=C(c1c(C)ccc(Cl)c1OCC(O)CNC(C)C)n1ccnc1", "note": "(stereo not shown) [Example 30]", "values": [{"measurement": "Acute toxicity (LD50)", "setting": "[1]", "value": 28.5, "unit": "mg/kg"}, {"measurement": "Reducing percent (%) of Maximal stimulus frequency", "setting": "[2]", "value": 50.6, "unit": "%"}]}, {"smiles": "C=C[C@H]1C[N@@]2CC[C@H]1C[C@@H]2[C@@H](O)c1ccnc2ccc(OC)cc12", "note": "[Quinidine, reference compound]", "values": [{"measurement": "Reducing percent (%) of Maximal stimulus frequency", "setting": "[2]", "value": 22.8, "unit": "%"}]}, {"smiles": "C=C(c1ccccc1OCC(O)CNC(C)C)n1cnc(C(=O)OCC)c1C", "note": "(stereo not shown) [Example 17]", "values": [{"measurement": "LD50", "setting": "[3]", "value": 36.4, "unit": "mg/kg"}, {"measurement": "Reducing percent (%) of Maximal stimulus frequency", "setting": "[2]", "value": 31.7, "unit": "%"}]}, {"smiles": "C=C(c1ccccc1OCC(O)CNC(C)(C)C)n1cccn1", "note": "(stereo not shown) [Example 25]", "values": [{"measurement": "Acute toxicity (LD50)", "setting": "[1]", "value": 22.3, "unit": "mg/kg"}, {"measurement": "Reducing percent (%) of Maximal stimulus frequency", "setting": "[2]", "value": 39.2, "unit": "%"}]}, {"smiles": "C=C(c1ccccc1OCC(O)CNC(C)C)n1cnc(C)c1", "note": "(stereo not shown) [Example 24]", "values": [{"measurement": "Acute toxicity (LD50)", "setting": "[1]", "value": 36.4, "unit": "mg/kg"}, {"measurement": "Reducing percent (%) of Maximal stimulus frequency", "setting": "[2]", "value": 36.1, "unit": "%"}]}, {"smiles": "C=C(c1c(Cl)ccc(Cl)c1OCC(O)CNC(C)C)n1ccnc1", "note": "(stereo not shown) [Example 7]", "values": [{"measurement": "Acute toxicity (LD50)", "setting": "[1]", "value": 19.8, "unit": "mg/kg"}, {"measurement": "Reducing percent (%) of Maximal stimulus frequency", "setting": "[2]", "value": 38.1, "unit": "%"}]}]}
